Measurements from ChEMBL document CHEMBL1201861, “Genomics of Drug Sensitity in Cancer screening data, Wellcome Trust Sanger Institute”.

Tests used:
Experiment in all cases: cells
HuTu80 = type: functional, cell-based, Homo sapiens, HUTU-80; details: Homo sapiens, HuTu80;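 note: growth inhibition of HuTu80 human cells, determined with a cell viability readout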
Description: SANGER: Inhibition of human HUTU-80 cell growth in a cell viability assay.

ML-2 = type: functional, cell-based, Homo sapiens; details: Homo sapiens, ML-2;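 note: growth inhibition of ML-2 cells, measured with a cell viability readout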
Description: SANGER: Inhibition of human ML-2 cell growth in a cell viability assay.

JAR = type: functional, cell-based, Homo sapiens; details: Homo sapiens, JAR;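 note: growth inhibition of human JAR cells determined with a cell viability assay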
Description: SANGER: Inhibition of human JAR cell growth in a cell viability assay.

RH-1 = type: functional, cell-based, Homo sapiens; details: Homo sapiens, RH-1;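 note: growth inhibition of human RH-1 cells, read out with a cell viability assay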
Description: SANGER: Inhibition of human RH-1 cell growth in a cell viability assay.

IA-LM = type: functional, cell-based, Homo sapiens; details: Homo sapiens, IA-LM;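 note: cell viability assay measuring growth inhibition of human IA-LM cells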
Description: SANGER: Inhibition of human IA-LM cell growth in a cell viability assay.

Becker = type: functional, cell-based, Homo sapiens; details: Homo sapiens, Becker;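 note: growth inhibition of Becker cells, read out with a cell viability assay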
Description: SANGER: Inhibition of human Becker cell growth in a cell viability assay.

SK-N-FI = type: functional, cell-based, Homo sapiens; details: Homo sapiens, SK-N-FI;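 note: cell viability assay measuring growth inhibition of human SK-N-FI cells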
Description: SANGER: Inhibition of human SK-N-FI cell growth in a cell viability assay.

L-363 = type: functional, cell-based, Homo sapiens; details: Homo sapiens, L-363
Description: SANGER: Inhibition of human L-363 cell growth in a cell viability assay.

TE-6 = type: functional, cell-based, Homo sapiens; details: Homo sapiens, TE-6;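 note: growth inhibition of TE-6 cells, read out with a cell viability assay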
Description: SANGER: Inhibition of human TE-6 cell growth in a cell viability assay.

NH-12 = type: functional, cell-based, Homo sapiens; details: Homo sapiens, NH-12;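 note: growth inhibition of NH-12 cells, read out with a cell viability assay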
Description: SANGER: Inhibition of human NH-12 cell growth in a cell viability assay.

SK-NEP-1 = type: functional, cell-based, Homo sapiens; details: Homo sapiens, SK-NEP-1;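 note: growth inhibition of human SK-NEP-1 cells, read out by a cell viability assay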
Description: SANGER: Inhibition of human SK-NEP-1 cell growth in a cell viability assay.

TE-1 = type: functional, cell-based, Homo sapiens; details: Homo sapiens, TE-1;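 note: growth inhibition of the human TE-1 cell line, read out with a cell viability assay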
Description: SANGER: Inhibition of human TE-1 cell growth in a cell viability assay.

SNU-C2B = type: functional, cell-based, Homo sapiens; details: Homo sapiens, SNU-C2B;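 note: cell viability readout used to measure compound-driven suppression of SNU-C2B cell proliferation, IC50 marking half-maximal growth inhibition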
Description: SANGER: Inhibition of human SNU-C2B cell growth in a cell viability assay.

CW-2 = type: functional, cell-based, Homo sapiens; details: Homo sapiens, CW-2;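 note: growth inhibition of CW-2 cells, read out by a cell viability assay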
Description: SANGER: Inhibition of human CW-2 cell growth in a cell viability assay.

EW-11 = type: functional, cell-based, Homo sapiens; details: Homo sapiens, EW-11;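 note: growth inhibition of human EW-11 cells, measured with a cell viability assay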
Description: SANGER: Inhibition of human EW-11 cell growth in a cell viability assay.

MFM-223 = type: functional, cell-based, Homo sapiens; details: Homo sapiens, MFM-223
Description: SANGER: Inhibition of human MFM-223 cell growth in a cell viability assay.

SNU-5 = type: functional, cell-based, Homo sapiens; details: Homo sapiens, SNU-5;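 note: cell viability readout used to measure growth inhibition in human NCI-SNU-5 cells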
Description: SANGER: Inhibition of human NCI-SNU-5 cell growth in a cell viability assay.

BV-173 = type: functional, cell-based, Homo sapiens; details: Homo sapiens, BV-173
Description: SANGER: Inhibition of human BV-173 cell growth in a cell viability assay.

LS-123 = type: functional, cell-based, Homo sapiens; details: Homo sapiens, LS-123
Description: SANGER: Inhibition of human LS-123 cell growth in a cell viability assay.

C8166 = type: functional, cell-based, Homo sapiens; details: Homo sapiens, C8166;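 note: growth inhibition of human C8166 cells measured by a cell viability assay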
Description: SANGER: Inhibition of human C8166 cell growth in a cell viability assay.

MEG-01 = type: functional, cell-based, Homo sapiens; details: Homo sapiens, MEG-01;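 note: growth inhibition of MEG-01 cells, read out by a cell viability assay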
Description: SANGER: Inhibition of human MEG-01 cell growth in a cell viability assay.

NCI-H526 = type: functional, cell-based, Homo sapiens; details: Homo sapiens, NCI-H526;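 note: growth inhibition of the human NCI-H526 cell line, measured by a cell viability assay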
Description: SANGER: Inhibition of human NCI-H526 cell growth in a cell viability assay.

NB12 = type: functional, cell-based, Homo sapiens; details: Homo sapiens, NB12;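 note: growth inhibition of human NB12 cells, read out by a cell viability assay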
Description: SANGER: Inhibition of human NB12 cell growth in a cell viability assay.

NMC-G1 = type: functional, cell-based, Homo sapiens; details: Homo sapiens, NMC-G1;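 note: growth inhibition of the NMC-G1 cell line, measured with a cell viability read-out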
Description: SANGER: Inhibition of human NMC-G1 cell growth in a cell viability assay.

BE-13 = type: functional, cell-based, Homo sapiens; details: Homo sapiens, BE-13;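 note: growth inhibition of human BE-13 cells, measured with a cell viability assay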
Description: SANGER: Inhibition of human BE-13 cell growth in a cell viability assay.

RCC10RGB = type: functional, cell-based, Homo sapiens; details: Homo sapiens, RCC10RGB;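 note: growth inhibition of human RCC10RGB cells, read out by a cell viability assay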
Description: SANGER: Inhibition of human RCC10RGB cell growth in a cell viability assay.

LNCaP-Clone-FGC = type: functional, cell-based, Homo sapiens; details: Homo sapiens, LNCaP-Clone-FGC
Description: SANGER: Inhibition of human LNCaP-Clone-FGC cell growth in a cell viability assay.

ONS-76 = type: functional, cell-based, Homo sapiens; details: Homo sapiens, ONS-76;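 note: growth inhibition of human ONS-76 cells, read out with a cell viability assay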
Description: SANGER: Inhibition of human ONS-76 cell growth in a cell viability assay.

CTB-1 = type: functional, cell-based, Homo sapiens; details: Homo sapiens, CTB-1
Description: SANGER: Inhibition of human CTB-1 cell growth in a cell viability assay.

HAL-01 = type: functional, cell-based, Homo sapiens; details: Homo sapiens, HAL-01;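 note: growth inhibition of human HAL-01 cells, read out with a cell viability assay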
Description: SANGER: Inhibition of human HAL-01 cell growth in a cell viability assay.

MOLT-16 = type: functional, cell-based, Homo sapiens; details: Homo sapiens, MOLT-16;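 note: growth inhibition of human MOLT-16 cells, read out with a cell viability assay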
Description: SANGER: Inhibition of human MOLT-16 cell growth in a cell viability assay.

GOTO = type: functional, cell-based, Homo sapiens; details: Homo sapiens, GOTO;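 note: growth inhibition of GOTO cells, read out by a cell viability assay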
Description: SANGER: Inhibition of human GOTO cell growth in a cell viability assay.

RPMI-8866 = type: functional, cell-based, Homo sapiens; details: Homo sapiens, RPMI-8866
Description: SANGER: Inhibition of human RPMI-8866 cell growth in a cell viability assay.

HCC1187 = type: functional, cell-based, Homo sapiens; details: Homo sapiens, HCC1187;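 note: growth inhibition of HCC1187 cells, read out with a cell viability assay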
Description: SANGER: Inhibition of human HCC1187 cell growth in a cell viability assay.

LU-139 = type: functional, cell-based, Homo sapiens; details: Homo sapiens, LU-139
Description: SANGER: Inhibition of human LU-139 cell growth in a cell viability assay.

BB65-RCC = type: functional, cell-based, Homo sapiens; details: Homo sapiens, BB65-RCC;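 note: growth inhibition of the cell line, measured with a cell viability assay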
Description: SANGER: Inhibition of human BB65-RCC cell growth in a cell viability assay.

D-247MG = type: functional, cell-based, Homo sapiens; details: Homo sapiens, D-247MG
Description: SANGER: Inhibition of human D-247MG cell growth in a cell viability assay.

NCI-N87 = type: functional, cell-based, Homo sapiens; details: Homo sapiens, NCI-N87;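 note: growth inhibition of human NCI-N87 cells, read out with a cell viability assay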
Description: SANGER: Inhibition of human NCI-N87 cell growth in a cell viability assay.

LB373-MEL-D = type: functional, cell-based, Homo sapiens; details: Homo sapiens, LB373-MEL-D;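 note: growth inhibition of the cell line, read out in a cell viability assay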
Description: SANGER: Inhibition of human LB373-MEL-D cell growth in a cell viability assay.

KARPAS-45 = type: functional, cell-based, Homo sapiens; details: Homo sapiens, KARPAS-45;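 note: inhibition of cell line growth, read out through a viability assay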
Description: SANGER: Inhibition of human KARPAS-45 cell growth in a cell viability assay.

J-RT3-T3-5 = type: functional, cell-based, Homo sapiens; details: Homo sapiens, J-RT3-T3-5;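 note: cell viability assay measuring growth inhibition of human J-RT3-T3-5 cells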
Description: SANGER: Inhibition of human J-RT3-T3-5 cell growth in a cell viability assay.

8-MG-BA = type: functional, cell-based, Homo sapiens; details: Homo sapiens, 8-MG-BA;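 note: growth inhibition of 8-MG-BA cells, read out with a cell viability assay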
Description: SANGER: Inhibition of human 8-MG-BA cell growth in a cell viability assay.

COLO-824 = type: functional, cell-based, Homo sapiens; details: Homo sapiens, COLO-824
Description: SANGER: Inhibition of human COLO-824 cell growth in a cell viability assay.

IST-MES1 = type: functional, cell-based, Homo sapiens; details: Homo sapiens, IST-MES1;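 note: growth inhibition of IST-MES1 cells, measured with a cell viability assay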
Description: SANGER: Inhibition of human IST-MES1 cell growth in a cell viability assay.

KLE = type: functional, cell-based, Homo sapiens; details: Homo sapiens, KLE;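 note: growth inhibition of human KLE cells, read out with a cell viability assay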
Description: SANGER: Inhibition of human KLE cell growth in a cell viability assay.

COLO-684 = type: functional, cell-based, Homo sapiens; details: Homo sapiens, COLO-684
Description: SANGER: Inhibition of human COLO-684 cell growth in a cell viability assay.

KY821 = type: functional, cell-based, Homo sapiens; details: Homo sapiens, KY821;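 note: growth inhibition of human KY821 cells, read out by a cell viability assay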
Description: SANGER: Inhibition of human KY821 cell growth in a cell viability assay.

D-263MG = type: functional, cell-based, Homo sapiens; details: Homo sapiens, D-263MG
Description: SANGER: Inhibition of human D-263MG cell growth in a cell viability assay.

CC(C)CCN1c2nc(Nc3cc(F)c(O)c(F)c3)ncc2N(C)C(=O)C1C (centres undefined)
IC50 (HuTu80): 3.67 µM
IC50 (ML-2): 0.856 µM
IC50 (JAR): > 5 µM
IC50 (RH-1): > 5 µM
IC50 (IA-LM): > 5 µM
IC50 (Becker): 2.66 µM
IC50 (SK-N-FI): > 5 µM
IC50 (L-363): > 5 µM
IC50 (TE-6): > 5 µM
IC50 (NH-12): 3.11 µM
IC50 (SK-NEP-1): 2.04 µM
IC50 (TE-1): > 5 µM
IC50 (SNU-C2B): 3.39 µM
IC50 (CW-2): > 5 µM
IC50 (EW-11): 3.41 µM
IC50 (MFM-223): > 5 µM
IC50 (SNU-5): > 5 µM
IC50 (BV-173): 1.99 µM
IC50 (LS-123): > 5 µM
IC50 (C8166): > 5 µM
IC50 (MEG-01): > 5 µM
IC50 (NCI-H526): > 5 µM
IC50 (NB12): > 5 µM
IC50 (NMC-G1): > 5 µM
IC50 (BE-13): 1.59 µM
IC50 (RCC10RGB): > 5 µM
IC50 (LNCaP-Clone-FGC): 3.7 µM
IC50 (ONS-76): > 5 µM
IC50 (CTB-1): 1.45 µM
IC50 (HAL-01): > 5 µM
IC50 (MOLT-16): > 5 µM
IC50 (GOTO): 3.28 µM
IC50 (RPMI-8866): > 5 µM
IC50 (HCC1187): > 5 µM
IC50 (LU-139): 0.85 µM
IC50 (BB65-RCC): 3.45 µM
IC50 (D-247MG): > 5 µM
IC50 (NCI-N87): > 5 µM
IC50 (LB373-MEL-D): > 5 µM
IC50 (KARPAS-45): 0.165 µM
IC50 (J-RT3-T3-5): > 5 µM
IC50 (8-MG-BA): 2.23 µM
IC50 (COLO-824): 4.9 µM
IC50 (IST-MES1): > 5 µM
IC50 (KLE): > 5 µM
IC50 (COLO-684): > 5 µM
IC50 (KY821): 0.888 µM
IC50 (D-263MG): > 5 µM

COc1cc2c(Nc3ccc(NC(=O)c4ccccc4)cc3)ncnc2cc1OCCCN1CCOCC1
IC50 (ML-2): > 4 µM
IC50 (JAR): > 4 µM
IC50 (RH-1): > 4 µM
IC50 (IA-LM): > 4 µM
IC50 (Becker): > 4 µM
IC50 (SK-N-FI): > 4 µM
IC50 (L-363): 1.95 µM
IC50 (TE-6): > 4 µM
IC50 (NH-12): 3.28 µM
IC50 (SK-NEP-1): 1.36 µM
IC50 (TE-1): > 4 µM
IC50 (SNU-C2B): > 4 µM
IC50 (CW-2): > 4 µM
IC50 (EW-11): > 4 µM
IC50 (MFM-223): > 4 µM
IC50 (SNU-5): > 4 µM
IC50 (BV-173): 1.76 µM
IC50 (LS-123): > 4 µM
IC50 (C8166): > 4 µM
IC50 (MEG-01): > 4 µM
IC50 (NCI-H526): > 4 µM
IC50 (NB12): > 4 µM
IC50 (NMC-G1): > 4 µM
IC50 (BE-13): 0.844 µM
IC50 (RCC10RGB): > 4 µM
IC50 (LNCaP-Clone-FGC): > 4 µM
IC50 (ONS-76): > 4 µM
IC50 (CTB-1): 1.67 µM
IC50 (HAL-01): > 4 µM
IC50 (MOLT-16): 0.61 µM
IC50 (GOTO): > 4 µM
IC50 (RPMI-8866): > 4 µM
IC50 (HCC1187): > 4 µM
IC50 (LU-139): 3.83 µM
IC50 (BB65-RCC): > 4 µM
IC50 (D-247MG): > 4 µM
IC50 (NCI-N87): > 4 µM
IC50 (KARPAS-45): 0.381 µM
IC50 (J-RT3-T3-5): > 4 µM
IC50 (8-MG-BA): > 4 µM
IC50 (COLO-824): > 4 µM
IC50 (IST-MES1): > 4 µM
IC50 (KLE): > 4 µM
IC50 (COLO-684): > 4 µM
IC50 (KY821): > 4 µM
IC50 (D-263MG): 2.71 µM
